# Data from ChEMBL document CHEMBL1201862, “PubChem BioAssay data set” (2004).
# Active and inactive are the calls of the source.
# Legend:
# Prothrombin = Prothrombin (Bos taurus, UniProt P00735); test: thrombin inhibition, dose response, biochemical, fluorescence polarization, uHTS hits (AID 602369); assay type: functional
# [1] = molecular target: 72 kDa type IV collagenase (Homo sapiens, UniProt P08253); test: Dose Response validation of uHTS RPN11 inhibitor hits using a MMP-2 Fluorescence assay.; assay type: functional
# [2] = molecular target: 26S proteasome non-ATPase regulatory subunit 14 (Homo sapiens, UniProt O00487); test: inhibition of proteasome subunit RPN11 – biochemical, fluorescence polarization, uHTS hits, confirmation (AID 602368); assay type: functional
# [3] = molecular target: Peroxisome proliferator-activated receptor gamma/Nuclear receptor coactivator 1 (Homo sapiens, UniProt P37231); test: (§1) TR-FRET dose response biochemical High Throughput Screening assay for agonists of the steroid receptor coactivator 1 (SRC-1) recruitment by the peroxisome proliferator-activated receptor gamma (PPAR gamma): non-selective agonists. [Related pubchem assays (depositor defined):AID1300, AID1808, AID504735, AID631]; assay type: protein assay
# [4] = molecular target: Peroxisome proliferator-activated receptor gamma/Nuclear receptor coactivator 3 (Homo sapiens, UniProt P37231); test: as §1, with “3 (SRC-3)” for “1 (SRC-1)”, “assays: 1301 (Confirmation screen.), 1048 (Primary screen.)]” for “assays (depositor defined):AID1300, AID1808, AID504735, AID631]”; assay type: functional
# [5] = molecular target: Peroxisome proliferator-activated receptor gamma/Nuclear receptor coactivator 2 (Homo sapiens, UniProt P37231); test: TR-FRET dose response biochemical High Throughput Screening assay for agonists of the steroid receptor coactivator 2 (SRC-2) recruitment by the peroxisome proliferator-activated receptor gamma (PPAR gamma): non-selective agonists. [Related pubchem assays: 1297, 1032 ]; assay type: functional
# Vero = test: cells; assay type: functional; settings: Chlorocebus sabaeus
# [6] = cytotoxicity toward DRD oncogenic fibroblasts, dose response, cell-based, non-viral oncogenic, luminescence (AID 1934); assay type: functional; settings: Homo sapiens
# BJ [7] = test: cytotoxicity toward BJ-TERT fibroblasts, dose response, cell-based, RAS-independent, luminescence (AID 1933); assay type: functional; settings: Homo sapiens
# BJ [8] = test: cytotoxicity toward Ras-transformed BJeLR fibroblasts, dose response, cell-based, alamar blue fluorescence, cherrypicked samples (AID 2631); assay type: functional; settings: Homo sapiens;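 note: confirmatory dose-response assay in RAS-dependent BJ fibroblasts engineered with TERT, LT and ST, with cytotoxicity read by fluorescence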
# BJ [9] = test: cytotoxicity toward BJ-TERT-LT-ST fibroblasts, dose response, cell-based, RAS-independent, luminescence (AID 1935); assay type: functional; settings: Homo sapiens;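 note: BJ fibroblasts immortalized with TERT plus LT and ST oncogenes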
# BJ [10] = test: cells; assay type: functional, cell-based; settings: Homo sapiens
# [11] = molecular target: T1, Type-1 angiotensin II receptor (Homo sapiens, UniProt P30556); test: AT1 receptor antagonists, dose response, selectivity assay for APJ receptor antagonist project, cell-based, uHTS hits (AID 463214); assay type: functional;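 note: antagonist potency against angiotensin II stimulated AT1 response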
# T1 sequence (P30556 whole entry): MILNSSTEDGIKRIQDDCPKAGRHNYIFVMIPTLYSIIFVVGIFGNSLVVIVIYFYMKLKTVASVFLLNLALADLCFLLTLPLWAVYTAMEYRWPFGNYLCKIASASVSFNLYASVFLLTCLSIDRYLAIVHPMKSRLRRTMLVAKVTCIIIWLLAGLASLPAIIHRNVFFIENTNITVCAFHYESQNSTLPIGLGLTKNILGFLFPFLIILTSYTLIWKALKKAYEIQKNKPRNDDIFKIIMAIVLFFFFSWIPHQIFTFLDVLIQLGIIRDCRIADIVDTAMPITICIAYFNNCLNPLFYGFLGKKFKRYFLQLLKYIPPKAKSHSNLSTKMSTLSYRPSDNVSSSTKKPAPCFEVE
# Beta-galactosidase = Beta-galactosidase (Escherichia coli, UniProt Q8VNN2); test: PubChem AID 485352; assay type: functional
# [12] = growth suppression of beta-catenin-knockout colon cells, dose response, cell-based, HCT116, human colon tumor (AID 1045); assay type: functional;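 note: HCT116 colon tumor cells with beta catenin knocked out; cells exposed to compound for 60 hours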
# [13] = microbe, parasite or virus in culture; assay type: functional; settings: Mycobacterium tuberculosis
# [14] = growth suppression of PTEN-null colon cells, dose response, cell-based, HCT116 PTEN knockout (AID 1047); assay type: functional;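 note: HCT116 colon tumor cells with PTEN knocked out; cells exposed to compound for 60 hours before readout; potency for loss of cell viability measured by luminescence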
# Cytochrome P450 2C9 = Cytochrome P450 2C9 (Homo sapiens, UniProt P11712)
# [15] = molecular target: G-protein coupled receptor 55 (Homo sapiens, UniProt Q9Y2T6); test: GPR55 agonists via beta-arrestin recruitment, primary screen, imaging, U2OS cells, beta-arrestin-GFP redistribution (AID 1961); assay type: functional
# HEK293 [16] = test: NOD1 signaling inhibitors, primary screen, cell-based, luminescence, uHTS (AID 1578); assay type: functional; settings: Homo sapiens
# HEK293 [17] = test: cells; assay type: functional, cell-based; settings: Homo sapiens
# HEK293 [18] = test: cells; assay type: functional, cell-based; settings: Homo sapiens; remark: listed apart in the source
# HEK293 [19] = test: NOD2 signaling inhibitors in MDP-stimulated cells, cell-based, uHTS, luminescence (AID 2001); assay type: functional; settings: Homo sapiens
# [20] = molecular target: DNA dC->dU-editing enzyme APOBEC-3G (Homo sapiens, UniProt Q9HC16); test: Dose Response confirmation of small molecule APOBEC3G DNA Deaminase Inhibitors via a fluorescence-based single-stranded DNA deaminase assay. [Related pubchem assays (depositor defined):AID493012, AID493028]; assay type: functional
# [21] = molecular target: DNA dC->dU-editing enzyme APOBEC-3A (Homo sapiens, UniProt P31941); test: APOBEC3A DNA deaminase inhibitors, dose response, biochemical (AID 504722); assay type: functional
# [22] = Luminescence Cell-Based Dose Confirmation HTS to Identify Activators of 5'UTR Stem-Loop Driven Alpha-Synuclein mRNA Translation in H4 Neuroglioblastoma Cells. [Related pubchem assays: 1829 (Project Summary), 1814 (Primary HTS)]; assay type: functional
# [23] = Luminescence Cell-Based Dose Response HTS to Identify Activators of Luciferase Translation or Activity in H4 […] Cells. [Related pubchem assays: 1829 (Project Summary), 1814 (Primary HTS)]; assay type: functional
# H4 = test: Luminescence Cell-Based Dose Response HTS to Identify Activators of 5'UTR Stem-Loop Driven Prion Protein mRNA Translation in H4 Neuroglioblastoma Cells. [Related pubchem assays: 1829 (Project Summary), 1814 (Primary HTS)]; assay type: functional; settings: Homo sapiens
# Aminopeptidase N = molecular target: T2, Aminopeptidase N (Plasmodium falciparum FcB1/Columbia, UniProt O96935); test: P. falciparum M1AAP inhibitors, biochemical, fluorogenic H-Leu-NHMec substrate, 1536-well (AID 1445); design: species or system Plasmodium falciparum 3D7, 3D7
# T2 sequence (O96935 whole entry): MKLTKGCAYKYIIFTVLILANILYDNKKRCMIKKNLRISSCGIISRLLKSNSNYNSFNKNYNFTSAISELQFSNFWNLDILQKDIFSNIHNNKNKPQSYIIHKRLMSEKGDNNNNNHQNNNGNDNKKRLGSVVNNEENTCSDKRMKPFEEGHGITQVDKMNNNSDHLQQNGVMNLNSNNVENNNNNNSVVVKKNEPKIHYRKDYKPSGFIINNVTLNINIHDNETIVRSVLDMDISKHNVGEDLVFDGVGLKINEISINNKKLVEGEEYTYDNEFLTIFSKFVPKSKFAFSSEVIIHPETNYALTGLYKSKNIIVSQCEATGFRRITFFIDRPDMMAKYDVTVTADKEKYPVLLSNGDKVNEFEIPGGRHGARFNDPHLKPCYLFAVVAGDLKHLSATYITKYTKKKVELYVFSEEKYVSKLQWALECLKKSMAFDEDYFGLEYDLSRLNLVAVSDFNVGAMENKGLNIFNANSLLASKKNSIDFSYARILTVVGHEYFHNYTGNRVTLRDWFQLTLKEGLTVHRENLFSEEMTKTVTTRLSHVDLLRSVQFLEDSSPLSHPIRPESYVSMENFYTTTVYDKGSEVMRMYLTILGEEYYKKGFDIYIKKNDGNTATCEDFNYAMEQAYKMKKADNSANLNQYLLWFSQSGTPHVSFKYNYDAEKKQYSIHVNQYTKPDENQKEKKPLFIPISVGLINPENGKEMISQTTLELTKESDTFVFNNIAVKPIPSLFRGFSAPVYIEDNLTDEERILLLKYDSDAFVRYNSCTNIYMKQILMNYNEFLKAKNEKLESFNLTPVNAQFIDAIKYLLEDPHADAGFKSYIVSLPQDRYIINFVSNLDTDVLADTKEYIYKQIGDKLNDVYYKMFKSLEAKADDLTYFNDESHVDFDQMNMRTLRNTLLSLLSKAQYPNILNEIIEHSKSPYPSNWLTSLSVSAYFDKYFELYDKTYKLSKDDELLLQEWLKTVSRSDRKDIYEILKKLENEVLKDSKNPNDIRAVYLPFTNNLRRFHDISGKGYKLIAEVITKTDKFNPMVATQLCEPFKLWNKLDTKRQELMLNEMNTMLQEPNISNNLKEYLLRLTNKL
# SN12K1 = test: cells; assay type: functional; settings: Homo sapiens
# INS1 = test: beta cell apoptosis inhibitors, cytokine rescue, dose response, luminescence, retest (AID 449756); assay type: functional, cell-based; settings: Rattus norvegicus;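 note: cell death triggered by IL-1 beta plus TNF-alpha plus IFN-gamma mixture; protective hits raise ATP signal compared with cytokine alone wells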
# [24] = molecular target: Heat shock protein HSP 90-alpha (Homo sapiens, UniProt P07900); assay type: functional, organism-based
# Sequence of Peroxisome proliferator-activated receptor gamma/Nuclear receptor coactivator 2 (P37231 whole entry): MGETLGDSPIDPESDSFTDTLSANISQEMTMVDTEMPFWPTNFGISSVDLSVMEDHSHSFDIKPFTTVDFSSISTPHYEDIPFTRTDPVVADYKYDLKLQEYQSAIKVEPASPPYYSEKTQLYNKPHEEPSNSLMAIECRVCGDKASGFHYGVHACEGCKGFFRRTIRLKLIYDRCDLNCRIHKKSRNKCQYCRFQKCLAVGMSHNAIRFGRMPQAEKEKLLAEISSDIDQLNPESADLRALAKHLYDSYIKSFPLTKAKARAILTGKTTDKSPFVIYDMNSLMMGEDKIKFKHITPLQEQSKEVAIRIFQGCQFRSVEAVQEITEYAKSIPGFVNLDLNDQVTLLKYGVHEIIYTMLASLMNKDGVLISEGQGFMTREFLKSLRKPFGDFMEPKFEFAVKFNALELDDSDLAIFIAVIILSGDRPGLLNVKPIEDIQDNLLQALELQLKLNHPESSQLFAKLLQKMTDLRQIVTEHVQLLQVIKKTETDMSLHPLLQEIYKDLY
# Sequence of Peroxisome proliferator-activated receptor gamma/Nuclear receptor coactivator 2 (Q15596 whole entry, further chain): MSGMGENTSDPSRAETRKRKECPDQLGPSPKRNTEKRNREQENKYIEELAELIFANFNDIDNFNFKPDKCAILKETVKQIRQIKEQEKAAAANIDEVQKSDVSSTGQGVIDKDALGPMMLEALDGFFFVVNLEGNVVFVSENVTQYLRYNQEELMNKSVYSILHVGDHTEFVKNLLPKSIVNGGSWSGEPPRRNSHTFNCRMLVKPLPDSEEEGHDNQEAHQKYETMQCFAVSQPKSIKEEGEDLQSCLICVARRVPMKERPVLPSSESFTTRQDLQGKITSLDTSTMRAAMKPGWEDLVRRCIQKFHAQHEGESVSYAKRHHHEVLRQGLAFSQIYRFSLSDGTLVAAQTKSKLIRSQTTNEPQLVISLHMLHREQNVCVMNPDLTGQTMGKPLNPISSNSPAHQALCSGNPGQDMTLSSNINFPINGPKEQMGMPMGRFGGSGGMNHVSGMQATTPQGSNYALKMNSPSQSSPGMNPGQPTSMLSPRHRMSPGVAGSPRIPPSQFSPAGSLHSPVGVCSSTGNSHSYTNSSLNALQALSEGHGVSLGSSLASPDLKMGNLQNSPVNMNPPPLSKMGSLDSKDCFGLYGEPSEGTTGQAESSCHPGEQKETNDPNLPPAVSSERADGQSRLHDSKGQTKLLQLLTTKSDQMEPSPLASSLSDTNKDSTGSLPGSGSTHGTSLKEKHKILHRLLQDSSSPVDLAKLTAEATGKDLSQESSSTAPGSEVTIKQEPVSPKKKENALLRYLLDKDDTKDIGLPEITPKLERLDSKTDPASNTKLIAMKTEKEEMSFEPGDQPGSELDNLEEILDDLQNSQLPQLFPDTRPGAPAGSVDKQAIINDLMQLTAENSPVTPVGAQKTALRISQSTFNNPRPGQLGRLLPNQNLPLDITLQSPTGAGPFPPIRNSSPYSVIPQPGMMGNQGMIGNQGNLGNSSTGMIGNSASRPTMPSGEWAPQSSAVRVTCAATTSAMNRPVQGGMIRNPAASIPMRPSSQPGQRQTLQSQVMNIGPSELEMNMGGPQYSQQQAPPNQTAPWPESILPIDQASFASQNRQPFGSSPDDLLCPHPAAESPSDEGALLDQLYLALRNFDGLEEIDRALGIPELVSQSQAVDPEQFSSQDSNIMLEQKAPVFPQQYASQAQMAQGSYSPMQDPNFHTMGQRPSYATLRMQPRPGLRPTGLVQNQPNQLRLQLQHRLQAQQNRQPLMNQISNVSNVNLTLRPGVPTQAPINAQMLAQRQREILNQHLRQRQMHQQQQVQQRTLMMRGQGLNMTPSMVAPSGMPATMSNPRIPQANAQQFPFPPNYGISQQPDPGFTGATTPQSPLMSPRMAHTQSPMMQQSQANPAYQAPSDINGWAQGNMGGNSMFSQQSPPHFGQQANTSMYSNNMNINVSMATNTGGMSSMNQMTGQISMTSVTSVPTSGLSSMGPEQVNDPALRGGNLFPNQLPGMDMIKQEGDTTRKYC
# Sequence of Peroxisome proliferator-activated receptor gamma/Nuclear receptor coactivator 1 (P37231 whole entry): as the sequence (P37231 whole entry) above
# Sequence of Peroxisome proliferator-activated receptor gamma/Nuclear receptor coactivator 1 (Q15788 whole entry, further chain): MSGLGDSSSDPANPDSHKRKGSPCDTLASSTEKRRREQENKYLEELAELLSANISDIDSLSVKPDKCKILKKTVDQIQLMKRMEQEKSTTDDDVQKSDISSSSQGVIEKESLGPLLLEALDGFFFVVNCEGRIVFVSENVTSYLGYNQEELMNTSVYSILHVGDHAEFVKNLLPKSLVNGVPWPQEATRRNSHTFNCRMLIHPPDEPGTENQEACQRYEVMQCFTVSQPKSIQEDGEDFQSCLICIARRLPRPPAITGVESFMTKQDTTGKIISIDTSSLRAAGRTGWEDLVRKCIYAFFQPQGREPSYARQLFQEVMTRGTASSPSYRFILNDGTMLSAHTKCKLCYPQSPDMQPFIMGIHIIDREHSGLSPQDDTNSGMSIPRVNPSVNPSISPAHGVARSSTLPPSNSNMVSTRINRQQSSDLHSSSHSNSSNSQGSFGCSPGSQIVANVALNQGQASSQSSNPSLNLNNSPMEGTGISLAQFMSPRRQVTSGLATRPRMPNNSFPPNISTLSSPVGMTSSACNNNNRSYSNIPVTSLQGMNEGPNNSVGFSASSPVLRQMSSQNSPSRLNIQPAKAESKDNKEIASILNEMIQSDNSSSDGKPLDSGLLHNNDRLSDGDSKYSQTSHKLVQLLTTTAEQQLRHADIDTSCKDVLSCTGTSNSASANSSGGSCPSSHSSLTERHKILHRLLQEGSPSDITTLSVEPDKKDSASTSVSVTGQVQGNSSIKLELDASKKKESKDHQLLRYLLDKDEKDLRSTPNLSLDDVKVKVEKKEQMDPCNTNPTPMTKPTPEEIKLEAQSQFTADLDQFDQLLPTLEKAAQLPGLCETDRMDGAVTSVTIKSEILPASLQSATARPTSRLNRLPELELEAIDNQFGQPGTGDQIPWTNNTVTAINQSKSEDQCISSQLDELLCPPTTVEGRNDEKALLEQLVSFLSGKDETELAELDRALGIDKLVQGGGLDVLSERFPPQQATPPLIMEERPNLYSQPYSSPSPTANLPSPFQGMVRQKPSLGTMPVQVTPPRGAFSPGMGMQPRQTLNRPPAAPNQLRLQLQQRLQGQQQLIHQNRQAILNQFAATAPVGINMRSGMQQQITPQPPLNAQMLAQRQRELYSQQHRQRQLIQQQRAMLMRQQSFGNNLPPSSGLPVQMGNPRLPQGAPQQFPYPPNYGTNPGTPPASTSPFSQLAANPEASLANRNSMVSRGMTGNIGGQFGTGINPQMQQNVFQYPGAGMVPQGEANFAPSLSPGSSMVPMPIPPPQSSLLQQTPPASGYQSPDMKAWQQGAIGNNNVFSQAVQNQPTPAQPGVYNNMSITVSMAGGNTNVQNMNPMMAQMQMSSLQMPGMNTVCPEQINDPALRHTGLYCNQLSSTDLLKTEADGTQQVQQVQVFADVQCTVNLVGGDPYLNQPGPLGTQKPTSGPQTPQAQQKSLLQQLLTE
# Sequence of DNA dC->dU-editing enzyme APOBEC-3A (P31941 whole entry): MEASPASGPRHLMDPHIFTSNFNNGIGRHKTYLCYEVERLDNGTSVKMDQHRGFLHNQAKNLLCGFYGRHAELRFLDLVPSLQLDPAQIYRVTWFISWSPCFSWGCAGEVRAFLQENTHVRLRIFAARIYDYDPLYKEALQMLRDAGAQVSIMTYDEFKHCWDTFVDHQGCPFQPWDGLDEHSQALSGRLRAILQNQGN
# Sequence of DNA dC->dU-editing enzyme APOBEC-3G (Q9HC16 whole entry): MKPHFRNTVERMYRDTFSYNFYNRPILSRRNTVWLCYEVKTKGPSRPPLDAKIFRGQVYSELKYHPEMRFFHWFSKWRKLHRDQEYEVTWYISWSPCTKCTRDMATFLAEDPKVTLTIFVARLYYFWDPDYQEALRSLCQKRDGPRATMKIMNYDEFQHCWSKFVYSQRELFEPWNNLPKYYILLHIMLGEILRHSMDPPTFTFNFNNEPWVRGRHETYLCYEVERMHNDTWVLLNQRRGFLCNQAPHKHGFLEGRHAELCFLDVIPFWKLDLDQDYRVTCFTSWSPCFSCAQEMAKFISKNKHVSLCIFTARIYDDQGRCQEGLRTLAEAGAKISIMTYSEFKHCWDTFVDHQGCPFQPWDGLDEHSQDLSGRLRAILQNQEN
# Sequence of G-protein coupled receptor 55 (Q9Y2T6 whole entry): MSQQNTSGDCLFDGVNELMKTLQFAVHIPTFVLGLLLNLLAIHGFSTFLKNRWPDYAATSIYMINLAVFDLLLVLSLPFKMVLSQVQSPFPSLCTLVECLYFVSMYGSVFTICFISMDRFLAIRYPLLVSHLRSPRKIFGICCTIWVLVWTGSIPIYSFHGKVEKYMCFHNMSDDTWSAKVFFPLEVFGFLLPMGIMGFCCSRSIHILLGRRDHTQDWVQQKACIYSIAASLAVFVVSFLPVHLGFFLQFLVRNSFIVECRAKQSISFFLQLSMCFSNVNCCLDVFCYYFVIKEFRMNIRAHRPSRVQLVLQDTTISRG
smiles,measurement,setting,value
Cc1csc(NC(=O)CSc2nc3sc(C)c(C)c3c(=O)[nH]2)n1,IC50,Prothrombin,43.6 µM (active)
same,IC50,[1],> 100 µM (inactive)
same,IC50,[2],24.3 µM (active)
CCn1c(=O)cc(SCC(=O)N2CCN(Cc3ccc4c(c3)OCO4)CC2)c2ccccc21,EC50,[3],> 79.4 µM (inactive)
same,EC50,[4],> 79.4 µM (not active)
same,EC50,[5],> 79.4 µM (not active)
CCc1cc(=O)oc2cc(C)cc(O)c12,EC50,[3],> 79.4 µM (inactive)
same,EC50,[4],> 79.4 µM (not active)
same,EC50,[5],21.1 µM (not active)
CC1CC(N(C(=O)c2ccc(Cl)cc2)c2ccccc2)c2ccccc2N1C(=O)c1ccco1 (configuration not stated),CC50,Vero,15.1 µM (active)
COc1ccccc1C1C2=C(O)OCC2=Nc2cc3c(cc21)OCO3 (configuration not stated),EC50,[6],9.6 µM (inconclusive)
same,EC50,BJ [7],6.64 µM (inconclusive)
same,EC50,BJ [8],< 0.104 µM (active)
same,EC50,BJ [9],9.65 µM (inconclusive)
same,EC50,BJ [10],15.2 µM (inconclusive)
Cc1ccc(OCC(=O)OCC(=O)c2cccc([N+](=O)[O-])c2)cc1C,IC50,[11],> 40 µM (not active)
same,EC50,Beta-galactosidase,> 40 µM (inactive)
CCCCC(=O)Nc1sc2c(c1C(=O)OCC)CCC(C=O)=C2Cl,EC50,[12],5.91 µM (active)
same,CC50,[13],> 40 µM (active)
same,EC50,[14],5.83 µM (active)
same,AC50,Cytochrome P450 2C9,7.94 µM (inconclusive)
same,EC50,[15],> 32 µM (inactive)
CN(C)S(=O)(=O)c1ccc(C(=O)Nc2nc(-c3cc4ccccc4o3)cs2)cc1,EC50,HEK293 [16],> 20 µM (inactive)
same,IC50,HEK293 [17],> 20 µM (inactive)
same,IC50,HEK293 [18],3.09 µM (active)
same,IC50,HEK293 [19],2.85 µM (active)
Cc1cc(-c2nnc(S)n2-c2ccc(C)c(C)c2)no1,IC50,[20],8.07 µM (active)
same,IC50,[21],> 100 µM (inactive)
C=CCn1c(=O)c2ccccc2n2c(S)nnc12,IC50,[20],2.61 µM (active)
same,IC50,[21],> 100 µM (inactive)
CCOc1ccc(CCNC(=O)CSc2cc(=O)n(C)c3ccccc23)cc1OCC,EC50,[3],> 79.4 µM (inactive)
same,EC50,[4],> 79.4 µM (not active)
same,EC50,[5],> 79.4 µM (not active)
Cc1[nH]c(=S)c(C#N)c2c1CCCC2,IC50,[20],5.25 µM (active)
same,IC50,[21],> 100 µM (inactive)
CC(NC(=O)C1CCN(C(=O)c2cccs2)CC1)c1ccc(S(N)(=O)=O)cc1 (configuration not stated),IC50,Prothrombin,> 100 µM (inactive)
same,IC50,[1],> 100 µM (inactive)
same,IC50,[2],9.98 µM (active)
COc1ccc(NP(=O)(Oc2ccccc2OC)Oc2ccccc2OC)cc1,EC50,[3],> 79.4 µM (inactive)
same,EC50,[4],> 79.4 µM (not active)
same,EC50,[5],> 79.4 µM (not active)
CN(C)CCCN(C(=O)c1cc(Cl)sc1Cl)c1nc2cc3c(cc2s1)OCO3,EC50,[15],> 32 µM (inactive)
Cc1cc(C)n2nc(C(=O)NNC(=O)c3ccc(Cl)cc3)nc2n1,EC50,[22],> 120 µM (not active)
same,EC50,[23],12.7 µM (active)
same,EC50,H4,> 120 µM (not active)
same,IC50,Aminopeptidase N,15.9 µM (active)
O=C(OCC(=O)c1ccc(Cl)cc1Cl)c1ccccn1,IC50,[11],35.9 µM (not active)
same,EC50,Beta-galactosidase,> 40 µM (inactive)
Cc1cc(C)c2sc(N(CCN(C)C)C(=O)c3cc(Cl)sc3Cl)nc2c1,EC50,[15],26.2 µM (inactive)
COc1cccc(N2[C@@H](CC(C)=O)c3ccc(/C=C/C(C)=O)cc3S2(=O)=O)c1,CC50,Vero,17.9 µM (active)
c1ccc(CN2CCc3[nH]c4ccccc4c3C2)cc1,GI50,SN12K1,15.2 µM (inactive)
Cc1ccc(NS(=O)(=O)c2cc([N+](=O)[O-])ccc2N/N=C/c2sc(N3CCOCC3)nc2-c2ccccc2)c(C)c1,AC50,INS1,4.62 µM (active)
same,IC50,[11],> 40 µM (not active)
same,EC50,Beta-galactosidase,> 40 µM (inactive)
same,EC50,[15],< 0.5 µM (active)
Cc1ccc(/N=C/c2c(C)[nH]n(-c3nc4ccccc4[nH]3)c2=O)cc1,AC50,[24],5.84 µM (active)
same,EC50,[6],2.83 µM (active)
same,AC50,INS1,1.42 µM (active)
same,EC50,BJ [7],2.84 µM (inconclusive)
same,EC50,BJ [8],> 133 µM (inactive)
same,EC50,BJ [9],3.62 µM (inconclusive)
same,EC50,BJ [10],3.03 µM (active)
